This note sets out measurements from patent US20040171688A1, “Carboxylic acids and derivatives thereof and pharmaceutical compositions containing them” (priority 1997, published 2004).

For this test, the target named is T1, HNF-4α (Rattus norvegicus, UniProt P22449).
T1 construct: GST-HNF-4α(LBD) fusion protein consisting of amino acids 96-455 of wild type HNF-4α fused to GST; fused on or other part: Glutathione-S-transferase (GST) at the N-terminus of the LBD construct; 6-histidine tag on the full-length construct
T1 sequence (P22449 105-464 isoform P22449-2 limits assumed): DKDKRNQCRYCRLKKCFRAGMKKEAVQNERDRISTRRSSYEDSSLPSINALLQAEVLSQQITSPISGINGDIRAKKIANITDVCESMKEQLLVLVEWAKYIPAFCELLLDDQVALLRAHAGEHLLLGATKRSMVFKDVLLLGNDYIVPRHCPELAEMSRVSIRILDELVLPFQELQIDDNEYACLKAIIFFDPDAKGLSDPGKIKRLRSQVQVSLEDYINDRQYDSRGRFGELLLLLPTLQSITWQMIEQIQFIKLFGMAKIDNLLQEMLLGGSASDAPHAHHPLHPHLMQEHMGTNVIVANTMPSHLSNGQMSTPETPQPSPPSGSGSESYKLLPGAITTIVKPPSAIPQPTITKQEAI
Nature of the test: Ligand binding assay with [3H]palmitoyl(16:0)-CoA on recombinant GST-HNF-4α(LBD) or His-HNF-4α. The conditions noted are these: competition with 8 nM [3H]palmitoyl(16:0)-CoA; GST-HNF-4α(LBD) or His-HNF-4α; read-out: EC50 (50% specific competition). On the procedure:
a. […] The respective recombinant proteins are incubated to equilibrium with [^3H]palmitoyl(16:0)-CoA (0.05 μCi) and with increasing nonlabeled palmitoyl(16:0)-CoA as indicated.
b. […] The respective recombinant proteins are incubated with 8 nM of [^3H]palmitoyl(16:0)-CoA (60 Ci/mmol) and with increasing nonlabeled myristoyl(14:0)-CoA as indicated. Percent bound refers to radiolabeled [^3H]palmitoyl(16:0)-CoA in the bound fraction. […] Percent bound refers to radiolabeled [^3H]palmitoyl(16:0)-CoA in the bound fraction.
Rat HNF-4α1 cDNA(pLEN4S)^1 was subcloned into the glutathione-S-transferase (GST) encoding pGEX-2T plasmid (Pharmacia) and the resultant plasmid was cleaved with smaI and AccI and religated to yield the GST-HNF-4α(LBD) fusion plasmid. […] The full length HNF-4α1 cDNA cloned into 6His-pET11d vector was expressed in E.coli BL21 (DE3)plysS.
Recombinant GST-HNF-4α(LBD) (100 pmol) or His-HNF-4α (100 pmol) were incubated for 60 min at 22° C. with [^3H]palmitoyl(16:0)-CoA (American RadiolabeledChemicals) in 100 μl of 10 mM phosphate buffer (pH 7.4). Competitor ligands or solvent carrier were added as indicated. Free and HNF-4α bound ^3[H]palmitoyl(16:0)-CoA were separated by […] and bound ligand was quantified by liquid scintillation counting. Nonspecific binding of [^3H]palmitoyl(16:0)-CoA was determined by its binding to the GST moiety or to carbonic anhydrase as nonrelevant protein.
Binding was exemplified with either the ligand binding domain of HNF-4α fused to glutathione-s-transferase (GST-HNF-4α(LBD)) or the full length HNF-4α protein tagged by 6 histidines (His-HNF-4α).

Molecules are shown by their SMILES. pEC50: −log10 of the molar value.

In the case of `CCCCCCCCCCCCCCCCCC(=O)SCCNC(=O)CCNC(=O)[C@H](O)C(C)(C)COP(=O)(O)OP(=O)(O)OC[C@H]1O[C@@H](n2cnc3c(N)ncnc32)[C@H](O)[C@@H]1OP(=O)(O)O` [Stearoyl(18:0)-CoA], the negative-log EC50 (pEC50) (in general, the negative decadic logarithm of the EC50, by convention in mol/L) was 5.57. `CCCCCCCCCCCCCC(=O)SCCNC(=O)CCNC(=O)[C@H](O)C(C)(C)COP(=O)(O)OP(=O)(O)OC[C@H]1O[C@@H](n2cnc3c(N)ncnc32)[C@H](O)[C@@H]1OP(=O)(O)O` [myristoyl(14:0)-CoA, reference compound]: the pEC50 was 5.85.
